The target of the assay is T1, human neutrophil elastase (HNE) (Homo sapiens, UniProt P08246).
T1 construct: purchased Sigma E8140
T1 sequence (P08246 30-247 limits assumed): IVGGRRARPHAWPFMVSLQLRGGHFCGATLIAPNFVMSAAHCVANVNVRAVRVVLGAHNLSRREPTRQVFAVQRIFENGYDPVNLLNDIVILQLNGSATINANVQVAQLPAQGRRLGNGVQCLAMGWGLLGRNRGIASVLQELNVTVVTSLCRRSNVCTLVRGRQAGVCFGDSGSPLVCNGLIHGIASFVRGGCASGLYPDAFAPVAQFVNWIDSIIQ
The assay can be described thus: HNE enzyme assay (human neutrophil elastase enzyme activity assay). To be noted: human leukocyte elastase 0.00072 U/mL; substrate MeOSuc-Ala-Ala-Pro-Val-AMC 100 μM; 25° C. for 30 minutes; at least two separate experiments; read-out: HNE inhibition (HNE enzyme inhibition, IC50 values). Format: biochemical. The method, then:
Compounds of the present invention were tested for potency in a human neutrophil elastase (HNE) enzyme activity assay.
Assays were performed in 96-well plates in a total assay volume of 100 μL. The final concentration of elastase enzyme (human leukocyte elastase, Sigma E8140) was 0.00072 U/mL. The peptide substrate (MeOSuc-Ala-Ala-Pro-Val-AMC, Calbiochem #324740) was used at a final concentration of 100 μM. The final concentration of DMSO was 1% in the assay buffer (0.05M Tris.HCl, 0.1M NaCl, 0.1M CaCl2, 0.0005% brij-35, pH 7.5). The enzymatic reaction was started by addition of the enzyme and incubated at 25° C. for 30 minutes. After incubation, the reaction was stopped by addition of soybean trypsin inhibitor (Sigma T9003) at a final concentration of 50 μg/well. Fluorescence was measured using a Molecular Devices fluorescence plate reader using 380 nm excitation and 460 nm emission wavelengths.
A dose response to each compound was performed and the effect of compound in each experiment was expressed as a percentage inhibition of the control enzyme fluorescence. Dose response curves were plotted and compound potency (IC50) was determined. Compounds were tested in at least two separate experiments.
With `CCOC(=O)c1c(-c2ccnn2-c2ccc(C#N)cc2)n(C)n(-c2cccc(C(F)(F)F)c2)c1=O` [Example 1, 2′-(4-Cyano-phenyl)-2-methyl-5-oxo-1-(3-trifluoromethyl-phenyl)-2,5-dihydro-1H,2′H-[3,3′]bipyrazolyl-4-carboxylic acid ethyl ester], the IC50 is less than 1 nM.

Regarding `CN1CCC(NC(=O)c2c(-c3ccnn3-c3ccc(C#N)cc3)n(C)n(-c3cccc(C(F)(F)F)c3)c2=O)CC1` [Example 2, 2′-(4-Cyano-phenyl)-2-methyl-5-oxo-1-(3-trifluoromethyl-phenyl)-2,5-dihydro-1H,2′H-[3,3′]bipyrazolyl-4-carboxylic acid (1-methyl-piperidin-4-yl)-amide], the IC50 is 1 to 10 nM. In the case of `CCNC(=O)c1c(-c2ccnn2-c2ccc(C#N)cc2)n(C)n(-c2cccc(C(F)(F)F)c2)c1=O` [Example 3, 2′-(4-Cyano-phenyl)-2-methyl-5-oxo-1-(3-trifluoromethyl-phenyl)-2,5-dihydro-1H,2′H-[3,3′]bipyrazolyl-4-carboxylic acid ethylamide] it was less than 1 nM. On to `Cn1c(-c2ccnn2-c2ccc(C#N)cc2)c(C(=O)N[C@@H]2C[C@@H]3CN(C(=O)OC(C)(C)C)C[C@@H]3C2)c(=O)n1-c1cccc(C(F)(F)F)c1` [Example 4, (3aS,5R,6aR)-5-{[2′-(4-Cyano-phenyl)-2-methyl-5-oxo-1-(3-trifluoromethyl-phenyl)-2,5-dihydro-1H,2′H-[3,3′]bipyrazolyl-4-carbonyl]-amino}-hexahydro-cyclopenta[c]pyrrole-2-carboxylic acid tert-butyl ester], for which the IC50 is less than 1 nM. Then `C[C@H](NC(=O)c1c(-c2ccnn2-c2ccc(C#N)cc2)n(C)n(-c2cccc(C(F)(F)F)c2)c1=O)c1ncc(CN(C)C)o1` [Example 5, 2′-(4-Cyano-phenyl)-2-methyl-5-oxo-1-(3-trifluoromethyl-phenyl)-2,5-dihydro-1H,2′H-[3,3′]bipyrazolyl-4-carboxylic acid [(S)-1-(5-dimethylaminomethyl-oxazol-2-yl)-ethyl]-amide], with less than 1 nM. In the case of `CN(C)CC(=O)N1CCC(NC(=O)c2c(-c3ccnn3-c3ccc(C#N)cc3)n(C)n(-c3cccc(C(F)(F)F)c3)c2=O)CC1` [Example 6, 2′-(4-Cyano-phenyl)-2-methyl-5-oxo-1-(3-trifluoromethyl-phenyl)-2,5-dihydro-1H,2′H-[3,3′]bipyrazolyl-4-carboxylic acid [1-(2-dimethylamino-acetyl)-piperidin-4-yl]-amide] it was less than 1 nM; in that of `C[C@H](NC(=O)c1c(-c2ccnn2-c2ccc(C#N)cc2)n(C)n(-c2cccc(C(F)(F)F)c2)c1=O)C(=O)N(C)CC1CCN(C)CC1` [Example 7, 2′-(4-Cyano-phenyl)-2-methyl-5-oxo-1-(3-trifluoromethyl-phenyl)-2,5-dihydro-1H,2′H-[3,3′]bipyrazolyl-4-carboxylic acid {(S)-1-[methyl-(1-methyl-piperidin-4-ylmethyl)-carbamoyl]-ethyl}-amide], less than 1 nM; in that of `C[C@H](NC(=O)c1c(-c2ccnn2-c2ccc(C#N)cc2)n(C)n(-c2cccc(C(F)(F)F)c2)c1=O)c1nnc(CN(C)C)o1` [Example 8, 2′-(4-Cyano-phenyl)-2-methyl-5-oxo-1-(3-trifluoromethyl-phenyl)-2,5-dihydro-1H,2′H-[3,3′]bipyrazolyl-4-carboxylic acid [(S)-1-(5-dimethylaminomethyl-[1,3,4]oxadiazol-2-yl)-ethyl]-amide], less than 1 nM. Then `CN1CCC(CN(C)C(=O)C(C)(C)NC(=O)c2c(-c3ccnn3-c3ccc(C#N)cc3)n(C)n(-c3cccc(C(F)(F)F)c3)c2=O)CC1` [Example 9, 2′-(4-Cyano-phenyl)-2-methyl-5-oxo-1-(3-trifluoromethyl-phenyl)-2,5-dihydro-1H,2′H-[3,3′]bipyrazolyl-4-carboxylic acid {1-methyl-1-[methyl-(1-methyl-piperidin-4-ylmethyl)-carbamoyl]-ethyl}-amide], with less than 1 nM.

Source of the values: patent publication US10172830B2, “Pyrazolone compounds having human neutrophil elastase inhibitory properties” (CHIESI FARMACEUTICI S.P.A., priority 2016, dated 2019).
